# Reference: ChEMBL document CHEMBL4680225, “Design and development of ((4-methoxyphenyl)carbamoyl) (5-(5-nitrothiophen-2-yl)-1,3,4-thiadiazol-2-yl)amide analogues as Mycobacterium tuberculosis ketol-acid reductoisomerase inhibitors” (Eur J Med Chem, 2020)
# System: Mycobacterium tuberculosis
# Experiment: Antitubercular activity against isoniazid-resistant Mycobacterium tuberculosis clinical isolate measured after 1 week by microplate alamar blue assay
# Assay type: functional
# Conditions: 168 h, time 1 weeks
row,Structure (SMILES),MIC [µM]
1,O=[N+]([O-])c1ccc(-c2nnc(NC(=S)Nc3ccc(Cl)cc3)s2)s1,12.5
2,COc1ccc(NC(=S)Nc2nnc(-c3ccc([N+](=O)[O-])o3)s2)cc1,7.81
3,COc1ccc(NC(=S)Nc2nnc(-c3ccc([N+](=O)[O-])s3)s2)cc1,0.2
4,O=[N+]([O-])c1ccc(-c2nnc(NC(=S)Nc3ccc(F)cc3)s2)o1,0.78
5,CC(=O)c1ccc(S(=O)(=O)Nc2nnc(-c3ccc([N+](=O)[O-])o3)s2)cc1,12.5
6,CC[C@@H](CO)NCCN[C@@H](CC)CO [ETHAMBUTOL],7.63
7,NNC(=O)c1ccncc1 [ISONIAZID],12.5
8,CO[C@H]1/C=C/O[C@@]2(C)Oc3c(C)c(O)c4c(O)c(c(/C=N/N5CCN(C)CC5)c(O)c4c3C2=O)NC(=O)/C(C)=C\C=C\[C@H](C)[C@H](O)[C@@H](C)[C@@H](O)[C@@H](C)[C@H](OC(C)=O)[C@@H]1C [RIFAMPIN],0.5
